Measured values reported in the supplement of paper PMC10307832.

Assays:
Assay in all cases: relative viability (nuclei count vs DMSO), 5 days (fraction); higher = more cells survive
Lapatinib + Pemetrexed = compound: CS(=O)(=O)CCNCc1ccc(-c2ccc3ncnc(Nc4ccc(OCc5cccc(F)c5)c(Cl)c4)c3c2)o1 [Lapatinib] + Nc1nc2[nH]cc(CCc3ccc(C(=O)N[C@@H](CCC(=O)O)C(=O)O)cc3)c2c(=O)[nH]1 [Pemetrexed] (partner 0.2 µM)
Summary of the method: (§1)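 Lung cancer cell lines were seeded in 1536-well plates and dosed by pin tool the next day, with either a single drug or a fixed anchor-drug dose combined with five library-drug doses (not always all listed) spaced in √10 steps. Five days later, one step fixed the cells and stained their nuclei (final 0.05% Triton X-100, 1% formaldehyde, 1 ug/ml Hoechst), and nuclei were counted on 4× images. Relative viability is the nuclei count in treated wells divided by the count in vehicle wells, and each value is the median of duplicate plates.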

Lapatinib + Dasatinib = compound: CS(=O)(=O)CCNCc1ccc(-c2ccc3ncnc(Nc4ccc(OCc5cccc(F)c5)c(Cl)c4)c3c2)o1 [Lapatinib] + Cc1nc(Nc2ncc(C(=O)Nc3c(C)cccc3Cl)s2)cc(N2CCN(CCO)CC2)n1 [Dasatinib] (partner 0.075 µM)
Summary of the method: as §1

Wnt-C59 + Olaparib = compound: CC1=NC=CC(=C1)C2=CC=C(C=C2)CC(=O)NC3=CC=C(C=C3)C4=CN=CC=C4 [Wnt-C59] + O=C(c1cc(Cc2n[nH]c(=O)c3ccccc23)ccc1F)N1CCN(C(=O)C2CC2)CC1 [Olaparib] (partner 8 µM)
Summary of the method: as §1

Wnt-C59 + Alpelisib = compound: CC1=NC=CC(=C1)C2=CC=C(C=C2)CC(=O)NC3=CC=C(C=C3)C4=CN=CC=C4 [Wnt-C59] + Cc1nc(NC(=O)N2CCC[C@H]2C(N)=O)sc1-c1ccnc(C(C)(C)C(F)(F)F)c1 [Alpelisib] (partner 2 µM)
Summary of the method: as §1

## UMC-11
Lapatinib + Pemetrexed; first compound 0.02 µM
  relative viability: 0.803
Lapatinib + Pemetrexed; first compound 0.06325 µM
  relative viability: 0.7
Lapatinib + Pemetrexed; first compound 0.2 µM
  relative viability: 0.781
Lapatinib + Pemetrexed; first compound 0.6325 µM
  relative viability: 0.795
Lapatinib + Pemetrexed; first compound 2 µM
  relative viability: 0.753
Lapatinib + Dasatinib; first compound 0.02 µM
  relative viability: 0.45
Lapatinib + Dasatinib; first compound 0.06325 µM
  relative viability: 0.404
Lapatinib + Dasatinib; first compound 0.2 µM
  relative viability: 0.52
Lapatinib + Dasatinib; first compound 0.6325 µM
  relative viability: 0.453
Lapatinib + Dasatinib; first compound 2 µM
  relative viability: 0.421
Wnt-C59 + Olaparib; first compound 0.001 µM
  relative viability: 0.793
Wnt-C59 + Olaparib; first compound 0.01 µM
  relative viability: 0.378
Wnt-C59 + Olaparib; first compound 0.03162 µM
  relative viability: 0.479
Wnt-C59 + Olaparib; first compound 0.1 µM
  relative viability: 0.415
Wnt-C59 + Alpelisib; first compound 0.001 µM
  relative viability: 1.08
Wnt-C59 + Alpelisib; first compound 0.01 µM
  relative viability: 0.978
Wnt-C59 + Alpelisib; first compound 0.03162 µM
  relative viability: 1.07
Wnt-C59 + Alpelisib; first compound 0.1 µM
  relative viability: 1.01
